For one test, the target named is T1, FGFR-1 (Homo sapiens, UniProt P11362).
T1 construct: GST; made in house
The test can be described thus: FGFR-1 TR-FRET biochemical assay. The conditions noted are these: 0.6 uM ATP, 5 nM FGFR1-GST; bounds given in nM. The essentials: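 In this LANCE time-resolved FRET format, compounds at final 10 μM–0.128 nM (1% DMSO, 1:5 series) were preincubated before enzyme start. Reactions ran for one hour at room temperature with 0.6 uM ATP, 25 nM biotinylated poly GT and 5 nM GST-tagged FGFR1. Inhibition was calculated from the 665/615 nm ratio minus the ATP-free background.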
A general note: TR-FRET usually uses a lanthanide donor and a delayed reading to cut background.

For a further test, the system named is H460. Briefly: Tumor cell proliferation (H460 proliferation assay). The test is classed as cell-based. To be noted: Homo sapiens, NCI-H460, 72 h, Alamar Blue. The method, then: (§1) Human tumor cells (e.g., HCT116 or MDA-MB-231 cells), were seeded in a Costar 96-well plate at 3.0×10^3 cells/well and grown in 150 μl of RPMI complete media (Invitrogen Corporation, Grand Island, N.Y.) containing 10% fetal bovine serum (Hyclone, Logan, Utah) at 37° C. for 16 h in an incubator with 5% CO2. To each well, 50 μl of additional growth media containing 40 μM to 18 nM concentrations of compound with 0.4% DMSO was added. Cells were grown for another 72 h at 37° C. with 5% CO2. 20 μl of Alamar Blue (Trek Diagnostic Systems, Inc., Cleveland, Ohio) reagent was added to each well and incubated for 3 h at 37° C. Plates were read in a SpectraMax Gemini (Molecular Devices, CA) with 544 nm excitation and 590 nm emission wavelength. IC50 values were determined by linear regression analysis of log drug concentration versus percent inhibition.
(Alamar Blue is a resazurin reagent that responds to reducing activity.)

The subject of the next test is HCT116 cells. The test can be described thus: Tumor cell proliferation (HCT116 proliferation assay). The class given is cell-based. The conditions noted are these: Homo sapiens, HCT-116, 72 h, Alamar Blue. The method, then:
as §1

The subject of the next test is MDA-MB-231 cells. Briefly: Tumor cell proliferation (MDA-MB-231 proliferation assay). The test is classed as cell-based. The conditions noted are these: Homo sapiens, MDA-MB-231, 72 h, Alamar Blue. The method, then: as §1
Test [1] deals with histone 3 phosphorylation in colon carcinoma (HCT116). The test can be described thus: p-Histone3 assay. The class given is cell-based. The conditions noted are these: Homo sapiens, HCT-116, 24 h, HCT116, 24 h treatment. The method, then: Compounds were assayed for the inhibition of histone 3 phosphorylation in colon carcinoma (HCT116). Briefly, 20,000 cells/well were seeded in a 96-well black-walled, poly-d-lysine plates in RPMI+10% FBS and incubated at 37° C. in 5% CO2 overnight. The following day, the cells were treated with compounds for 24 hours at 37° C. Following compound treatment; plates were centrifuged at 1000 rpm for 2 minutes and washed twice with 100 μl of cold sterile TBS. Cells were then fixed with cold 3.7% formaldehyde in TBS (4° C. for 1 hour) and then permeabolized with 0.1% Triton-X-100 in TBS (room temperature for 30 minutes). Plates were then washed with of 0.25% BSA-TBS and blocked with BSA solution for 1 hour at room temperature while shaking. The supernatant was removed and replaced with diluted primary antibody (anti-phospho-histone 3, serine 10, Cell Signaling) at 1:250 in 0.25% BSA-TBS and incubated overnight at 4° C. The plates were washed and treated with diluted secondary antibody (anti-rabbit Eu-labeled) at 1:10000 in 0.25% BSA-TBS (room temperature for 1 hour). The antibody solution was removed from each well and washed eight times. The wash buffer was replaced with 50 μl pre-warmed enhancement solution and mixed on the orbital shaker for 10 minutes. Fluorescence was detected with a Victor V Fluorescence Detector. The data are expressed as percent inhibition: % inhibition=100−((Signal with inhibitor−background)/(Signal without inhibitor−background))−100.

Setting [2] is: lower bound of the bin 'greater than 500 nM but less than 4 μM'.
Setting [3] is: upper bound of the bin 'greater than 500 nM but less than 4 μM'.
Where [4] appears, read: lower bound of the bin 'greater than 500 nM but less than 3 μM'.
[5] abbreviates: upper bound of the bin 'greater than 500 nM but less than 3 μM'.
Setting [6] is: lower bound of the bin 'greater than 500 nM but less than 5 μM'.

T1 sequence (P11362 22-822): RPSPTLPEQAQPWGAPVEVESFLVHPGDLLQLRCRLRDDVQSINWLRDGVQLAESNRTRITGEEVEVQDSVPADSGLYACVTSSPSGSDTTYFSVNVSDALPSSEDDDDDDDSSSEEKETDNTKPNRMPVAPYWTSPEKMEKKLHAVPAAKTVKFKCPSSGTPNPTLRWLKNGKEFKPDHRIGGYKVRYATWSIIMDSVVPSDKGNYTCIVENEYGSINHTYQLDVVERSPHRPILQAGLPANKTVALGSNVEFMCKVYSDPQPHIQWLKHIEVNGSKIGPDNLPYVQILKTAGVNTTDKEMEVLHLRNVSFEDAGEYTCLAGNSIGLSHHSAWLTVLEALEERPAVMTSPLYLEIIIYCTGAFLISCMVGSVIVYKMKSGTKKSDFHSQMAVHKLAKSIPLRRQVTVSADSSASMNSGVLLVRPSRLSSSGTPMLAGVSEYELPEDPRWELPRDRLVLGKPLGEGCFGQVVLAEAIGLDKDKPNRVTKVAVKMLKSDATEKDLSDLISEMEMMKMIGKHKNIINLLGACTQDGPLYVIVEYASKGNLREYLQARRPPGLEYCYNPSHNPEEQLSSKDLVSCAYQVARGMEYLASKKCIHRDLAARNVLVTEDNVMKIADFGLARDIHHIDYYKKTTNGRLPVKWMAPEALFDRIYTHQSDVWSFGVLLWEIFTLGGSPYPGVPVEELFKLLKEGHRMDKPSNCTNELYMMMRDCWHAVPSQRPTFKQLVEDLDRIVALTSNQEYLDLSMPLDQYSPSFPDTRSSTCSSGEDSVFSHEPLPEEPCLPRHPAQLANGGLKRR

With `Nc1ncnn2c(CN3CCOCC3)cc(-c3ccc(NC(=O)Nc4cc(C(F)(F)F)ccc4F)c(F)c3)c12` [Example 1], the figures for the IC50 against FGFR-1, in the test on H460 (setting [2]) and in the test on H460 (setting [3]) were less than 10 nM, more than 0.5 µM and less than 4 µM, respectively.
For the compound `Nc1ncnn2c(CN3CCOCC3)cc(-c3ccc(NC(=O)Nc4cc(C(F)(F)F)ccn4)cc3)c12` [Example 3, N-{4-[4-amino-7-(morpholin-4-ylmethyl)pyrrolo[2,1-f][1,2,4]triazin-5-yl]phenyl}-N′-[4-(trifluoromethyl)pyridin-2-yl]urea], the IC50 is less than 10 nM against FGFR-1; more than 0.5 µM in the test on H460 (setting [2]); less than 4 µM with H460 (setting [3]); more than 0.5 µM in the test on HCT116 cells (setting [2]); less than 4 µM with HCT116 cells (setting [3]); more than 0.5 µM with MDA-MB-231 cells (setting [4]). Also, the IC50 with MDA-MB-231 cells (setting [5]) was less than 3 µM.
In the case of `Nc1ncnn2c(CN3CCOCC3)cc(-c3ccc(NC(=O)Nc4cc(C(F)(F)F)ccc4F)cc3)c12` [Example 4, N-{4-[4-amino-7-(morpholin-4-ylmethyl)-pyrrolo[2,1-f][1,2,4]triazin-5-yl]phenyl}-N′-[2-fluoro-5-(trifluoromethyl)phenyl]urea], the IC50 is less than 10 nM against FGFR-1; more than 0.5 µM in the test on HCT116 cells (setting [2]); less than 4 µM in the test with HCT116 cells (setting [3]); more than 0.5 µM with MDA-MB-231 cells (setting [4]); less than 3 µM in the test with MDA-MB-231 cells (setting [5]); less than 5 µM in test [1] (bounds given in μM). In addition, in test [1] (setting [6]), the IC50 is more than 0.5 µM.
In the case of `Nc1ncnn2c(CN3CCOCC3)cc(-c3ccc(NC(=O)Nc4cccc(C(F)(F)F)c4)cc3)c12` [Example 5, N-{4-[4-amino-7-(morpholin-4-ylmethyl)-pyrrolo[2,1-f][1,2,4]triazin-5-yl]phenyl}-N′-[3-(trifluoromethyl)phenyl]urea], the IC50 with H460 (setting [2]) is more than 0.5 µM; in the test with H460 (setting [3]) it was less than 4 µM; in the test on HCT116 cells (setting [2]), more than 0.5 µM; with HCT116 cells (setting [3]) it was less than 4 µM; in the test with MDA-MB-231 cells (setting [4]) it was more than 0.5 µM; with MDA-MB-231 cells (setting [5]), less than 3 µM.
Turning to `Nc1ncnn2c(CN3CCOCC3)cc(-c3ccc(NC(=O)Nc4ccc(F)c(C(F)(F)F)c4)cc3)c12` [Example 6, N-{4-[4-amino-7-(morpholin-4-ylmethyl)-pyrrolo[2,1-f][1,2,4]triazin-5-yl]phenyl}-N′-[4-fluoro-3-(trifluoromethyl)phenyl]urea], the IC50 against FGFR-1 is less than 10 nM; in the test with H460 (setting [2]), more than 0.5 µM; in the test with H460 (setting [3]) it was less than 4 µM; in the test with HCT116 cells (setting [2]) it was more than 0.5 µM; in the test on HCT116 cells (setting [3]), less than 4 µM; in the test with MDA-MB-231 cells (setting [4]) it was more than 0.5 µM. The IC50 in the test with MDA-MB-231 cells (setting [5]) was less than 3 µM.
As to `Nc1ncnn2c(CN3CCOCC3)cc(-c3ccc(NC(=O)Nc4cc(C(F)(F)F)ccn4)c(F)c3)c12` [Example 8, N-{4-[4-amino-7-(morpholin-4-ylmethyl)pyrrolo[2,1-f][1,2,4]triazin-5-yl]-2-fluorophenyl}-N′-[4-(trifluoromethyl)pyridin-2-yl]urea], the IC50 against FGFR-1 is less than 10 nM; with H460 (setting [2]), more than 0.5 µM; in the test with H460 (setting [3]), less than 4 µM.
With `Nc1ncnn2c(CN3CCOCC3)cc(-c3ccc(NC(=O)Nc4cccc(C(F)(F)F)c4)c(F)c3)c12` [Example 10, N-{4-[4-amino-7-(morpholin-4-ylmethyl)pyrrolo[2,1-f][1,2,4]triazin-5-yl]-2-fluorophenyl}-N′-[3-(trifluoromethyl)phenyl]urea], the IC50 against FGFR-1 is less than 10 nM; in test [1] (bounds given in μM), less than 5 µM; in test [1] (setting [6]), more than 0.5 µM.
For the compound `Nc1ncnn2c(CN3CCOCC3)cc(-c3cc(F)c(NC(=O)Nc4cc(C(F)(F)F)ccc4F)cc3F)c12` [Example 15, N-{4-[4-amino-7-(morpholin-4-ylmethyl)pyrrolo[2,1-f][1,2,4]triazin-5-yl]-2,5-difluorophenyl}-N′-[2-fluoro-5-(trifluoromethyl)phenyl]urea], the IC50 against FGFR-1 is less than 10 nM; in test [1] (bounds given in μM), less than 5 µM; in test [1] (setting [6]), more than 0.5 µM.
As for `Nc1ncnn2c(CN3CCOCC3)cc(-c3ccc(NC(=O)Nc4cc(C(F)(F)F)ccc4F)cc3F)c12` [Example 16, N-{4-[4-amino-7-(morpholin-4-ylmethyl)pyrrolo[2,1-f][1,2,4]triazin-5-yl]-3-fluorophenyl}-N′-[2-fluoro-5-(trifluoromethyl)phenyl]urea], the IC50 is less than 10 nM on FGFR-1, less than 5 µM in test [1] (bounds given in μM) and more than 0.5 µM in test [1] (setting [6]).
For `Cc1cc(-c2cc(CN3CCOCC3)n3ncnc(N)c23)ccc1NC(=O)Nc1cc(C(F)(F)F)ccc1F` [Example 25, N-{4-[4-amino-7-(morpholin-4-ylmethyl)pyrrolo[2,1-f][1,2,4]triazin-5-yl]-2-methylphenyl}-N′-[2-fluoro-5-(trifluoromethyl)phenyl]urea], the values for the IC50 (on FGFR-1; in test [1] (bounds given in μM); in test [1] (setting [6])) were less than 10 nM, less than 5 µM and more than 0.5 µM, respectively.
As to `COc1ccc(C(C)(C)C)cc1NC(=O)Nc1ccc(-c2cc(CN3CCOCC3)n3ncnc(N)c23)cc1` [Example 44, N-{4-[4-amino-7-(morpholin-4-ylmethyl)pyrrolo[2,1-f][1,2,4]triazin-5-yl]phenyl}-N′-(5-tert-butyl-2-methoxyphenyl)urea], the IC50 was in the range of 10 to 100 nM against FGFR-1 and 5 to 10 µM in test [1] (bounds given in μM).
As for `CS(=O)(=O)N1CCN(Cc2cc(-c3ccc(NC(=O)Nc4cc(C(F)(F)F)ccc4F)cc3)c3c(N)ncnn23)CC1` [Example 83, N-[4-(4-amino-7{[4(methylsulfonyl)-piperazin-1-yl]methyl}pyrrolo[2,1-f][1,2,4]triazin-5-yl)phenyl]-N′-[2-fluoro-5-(trifluoromethyl)phenyl]urea], the IC50 is 10 to 100 nM on FGFR-1, less than 5 µM in test [1] (bounds given in μM) and more than 0.5 µM in test [1] (setting [6]).
Turning to `CC(=O)N1CCN(Cc2cc(-c3ccc(NC(=O)Nc4cc(C(F)(F)F)ccc4F)cc3)c3c(N)ncnn23)CC1` [Example 87, N-(4-{7-[(4-acetylpiperazin-1-yl)methyl]-4-aminopyrrolo[2,1-f][1,2,4]triazin-5-yl}phenyl)-N′-[2-fluoro-5-(trifluoromethyl)phenyl]urea], the IC50 was less than 5 µM in test [1] (bounds given in μM) and more than 0.5 µM in test [1] (setting [6]).
On to `Nc1ncnn2c(CN3CCNCC3)cc(-c3ccc(NC(=O)Nc4cccc(Br)n4)cc3)c12` [Example 91, N-4-[4-amino-7-(piperazin-1-ylmethyl)pyrrolo[2,1-f][1,2,4]-triazin-5-yl]phenyl-N′-(6-bromopyridin-2-yl)urea], for which the IC50 in test [1] (bounds given in μM) was less than 5 µM; in test [1] (setting [6]), more than 0.5 µM.
As to `CC(=O)N1CCN(Cc2cc(-c3ccc(NC(=O)Nc4cccc(Br)n4)cc3)c3c(N)ncnn23)CC1` [Example 93, N-(4-7-[(4-acetylpiperazin-1-yl)methyl]-4-aminopyrrolo[2,1-f][1,2,4]triazin-5-ylphenyl)-N′-(6-bromopyridin-2-yl)urea], the IC50 in test [1] (bounds given in μM) was less than 5 µM; in test [1] (setting [6]) it was more than 0.5 µM.
`CS(=O)(=O)N1CCN(Cc2cc(-c3ccc(NC(=O)Nc4cccc(Br)n4)cc3)c3c(N)ncnn23)CC1` [Example 94, N-[4-(4-amino-7-[4-(methylsulfonyl)piperazin-1-yl]methylpyrrolo[2,1-f][1,2,4]triazin-5-yl)phenyl]-N′-(6-bromopyridin-2-yl)urea]: the values for the IC50 in test [1] (bounds given in μM) and in test [1] (setting [6]) were less than 5 µM and more than 0.5 µM, respectively.
In the case of `Nc1ncnn2c(CO)cc(-c3ccc(NC(=O)Nc4cccc(C(F)(F)F)n4)cc3)c12` [Example 105, N-{4-[4-amino-7-(hydroxymethyl)pyrrolo[2,1-f][1,2,4]triazin-5-yl]phenyl}-N′-[6-(trifluoromethyl)pyridin-2-yl]urea], the IC50 is less than 5 µM in test [1] (bounds given in μM) and more than 0.5 µM in test [1] (setting [6]).

As a reminder, the IC50 is the midpoint of a concentration-inhibition curve.

The record behind these values is patent publication US8143393B2, “Substituted 4-amino-pyrrolotriazine derivatives useful for treating hyper-proliferative disorders and diseases associated with angiogenesis” (Bayer HealthCare LLC, priority 2005, dated 2012).
